In ChEMBL document CHEMBL3301361, “Experimental in vitro DMPK and physicochemical data on a set of publicly disclosed compounds”:
In brackets after ≈: the same amount, converted by molar mass.

How the values were obtained:
physchem [1] = assay: physchem
physchem [2] = settings: octan-1-ol/water
in vitro [3] = settings: Beagle, dog, plasma
physchem [4] = assay: physchem; remark: listed apart in the source
in vitro [5] = settings: human, plasma
in vitro [6] = settings: SD, HW or BN, rat, plasma
in vitro [7] = settings: human, hepatocytes
in vitro [8] = settings: hepatocytes
in vitro [9] = settings: human
physchem [10] = settings: pH 7.4 buffer

Cn1c(=O)c2nn[nH]c2n(C)c1=O
pKa (physchem [1]): 4.4

COc1ccnc(NC2CCN(C(=O)c3ccc(C#N)cc3)CC2)c1
logD (physchem [2]; pH 7.4, LogD7.4): 1.73
fraction unbound at 5 h (in vitro [3]): 0.0532
pKa (physchem [4]): 7.1

CCCc1c2nccc(Cl)c2cc2c(=O)cc(C(=O)O)oc12
pKa (physchem [1]): 2.5

O=C(O)c1cc(=O)c2cc(Cl)ccc2o1
pKa (physchem [1]): < 2

COc1ccc2c(=O)cc(C(=O)O)oc2c1
pKa (physchem [1]): < 2

O=C(O)COc1ccc(Cl)cc1CN1CCN(S(=O)(=O)c2ccccc2)CC1
logD (physchem [2]; pH 7.4, LogD7.4): 0.49
fraction unbound at 5 h (in vitro [5]; PPB): 0.0383
fraction unbound at 5 h (in vitro [3]): 0.04
fraction unbound at 5 h (in vitro [6]): 0.132
pKa (physchem [4]): 6.8

O=C(O)COc1ccc(Cl)cc1CN1CCN(S(=O)(=O)c2ccc(F)cc2)CC1
hepatocyte CLint (in vitro [7]): < 3 µL/min/1e6 cells
logD (physchem [2]; pH 7.4, LogD7.4): 0.99
fraction unbound at 5 h (in vitro [5]; PPB): 0.0101
fraction unbound at 5 h (in vitro [3]): 0.0768
hepatocyte CLint (in vitro [8]): < 3 µL/min/1e6 cells
fraction unbound at 5 h (in vitro [6]): 0.089

C[C@H]1CN(Cc2cc(Cl)ccc2OCC(=O)O)CCN1C(=O)Cc1ccc(Cl)cc1
hepatocyte CLint (in vitro [7]): < 3 µL/min/1e6 cells
fraction unbound at 5 h (in vitro [5]): 0.0187
fraction unbound at 5 h (in vitro [3]): 0.0262
hepatocyte CLint (in vitro [8]): < 3 µL/min/1e6 cells
fraction unbound at 5 h (in vitro [6]): 0.0383
microsomal CLint (in vitro [9]; liver microsomes): < 3 µL/min/mg

O=C(O)COc1ccc([N+](=O)[O-])cc1-c1ccccc1
logD (physchem [2]; pH 7.4, LogD7.4): -0.69
fraction unbound at 5 h (in vitro [5]; PPB): 0.0041
pKa (physchem [1]): 2.7

N#Cc1cccc(-c2cc(C(F)(F)F)ccc2OCC(=O)O)c1
hepatocyte CLint (in vitro [7]): < 3 µL/min/1e6 cells
logD (physchem [2]; pH 7.4, LogD7.4): 0.05
fraction unbound at 5 h (in vitro [5]; PPB): 0.0139
fraction unbound at 5 h (in vitro [3]): 0.0358
hepatocyte CLint (in vitro [8]): < 3 µL/min/1e6 cells
fraction unbound at 5 h (in vitro [6]): 0.035
microsomal CLint (in vitro [9]; liver microsomes): < 3 µL/min/mg

CCC(Oc1ccc(C(F)(F)F)cc1-c1ccc(S(=O)(=O)CC)cc1C)C(=O)O (centres undefined)
logD (physchem [2]; pH 7.4, LogD7.4): 0.31
pKa (physchem [1]): 3.4

CCS(=O)(=O)c1ccc(-c2cc(C(F)(F)F)ccc2OC(C)(C)C(=O)O)c(C)c1
pKa (physchem [1]): 3.2

N#Cc1ccc(C(F)(F)F)nc1O[C@H](CCN)c1ccno1
logD (physchem [2]; pH 7.4, LogD7.4): -0.49
fraction unbound at 5 h (in vitro [5]; PPB): 0.557
fraction unbound at 5 h (in vitro [3]): 0.535
pKa (physchem [4]): 9.5

O=C(O)/C=C(/c1ccccc1)C(F)(F)F
pKa (physchem [1]): 2.41

CCN(C(=O)c1cnn(-c2ccccc2)c1NS(=O)(=O)c1ccc(-c2cnco2)cc1)C1CCCCC1
solubility thermodynamic (physchem [10]): 204 µM (≈ 106 µg/mL)
hepatocyte CLint (in vitro [7]): 9.5 µL/min/1e6 cells
logD (physchem [2]; pH 7.4, LogD7.4): 1.46
fraction unbound at 5 h (in vitro [5]; PPB): 0.013
fraction unbound at 5 h (in vitro [3]): 0.0025
hepatocyte CLint (in vitro [8]): 35 µL/min/1e6 cells
fraction unbound at 5 h (in vitro [6]): 0.0057
microsomal CLint (in vitro [9]; liver microsomes): 137 µL/min/mg

CCCc1nn(C)c2c(=O)[nH]c(-c3cc(S(=O)(=O)N4CCN(C)CC4)ccc3OCC)nc12
hepatocyte CLint (in vitro [7]): 16.6 µL/min/1e6 cells
logD (physchem [2]; pH 7.4, LogD7.4): 2.8
fraction unbound at 5 h (in vitro [5]; PPB): 0.0447
fraction unbound at 5 h (in vitro [3]): 0.176
hepatocyte CLint (in vitro [8]): > 150 µL/min/1e6 cells
fraction unbound at 5 h (in vitro [6]): 0.0988
microsomal CLint (in vitro [9]; liver microsomes): 132 µL/min/mg

Cc1ccccc1S(=O)(=O)NC(=O)N1CCC(N2CCC(Oc3ccc(Cl)c(Cl)c3)CC2)CC1
logD (physchem [2]; pH 7.4, LogD7.4): 1.71
fraction unbound at 5 h (in vitro [5]; PPB): 0.105
pKa (physchem [1]): 3.4

N#Cc1cccc(S(=O)(=O)NC[C@@H](O)CN2CCC(Oc3ccc(Cl)c(Cl)c3)CC2)c1
pKa (physchem [1]): 10.1

Cn1c(C(=O)O)c(CCCOc2cccc3ccccc23)c2ccccc21
logD (physchem [2]; pH 7.4, LogD7.4): 2.99
pKa (physchem [1]): 4.01

O=C(NCC12CC3CC(CC(C3)C1)C2)c1cc(CN2CCNCC2)ccc1Cl
solubility thermodynamic (physchem [10]): 74.1 µM (≈ 29.8 µg/mL)
hepatocyte CLint (in vitro [7]): 4.46 µL/min/1e6 cells
logD (physchem [2]; pH 7.4, LogD7.4): 1.84
fraction unbound at 5 h (in vitro [5]; PPB): 0.0872
fraction unbound at 5 h (in vitro [3]): 0.157
hepatocyte CLint (in vitro [8]): 4 µL/min/1e6 cells
fraction unbound at 5 h (in vitro [6]): 0.062
microsomal CLint (in vitro [9]; microsomes): 18 µL/min/mg
pKa (physchem [4]): 8.85

O=C(Nc1ccc([N+](=O)[O-])cc1O)Nc1ccccc1Br
logD (physchem [2]; pH 7.4, LogD7.4): 3.9
fraction unbound at 5 h (in vitro [5]; PPB): 0.0027
pKa (physchem [1]): 7.7

Cc1nnc(C(=O)NC(C)(C)c2nc(C(=O)NCc3ccc(F)cc3)c(O)c(=O)n2C)o1
pKa (physchem [1]): 3.97

C[C@H](CO)Nc1[nH]c(SCc2ccccc2F)nc2nc(=O)sc1-2
solubility thermodynamic (physchem [10]): 8.1 µM (≈ 2.97 µg/mL)
hepatocyte CLint (in vitro [7]): 30.1 µL/min/1e6 cells
logD (physchem [2]; pH 7.4, LogD7.4): 3
fraction unbound at 5 h (in vitro [3]): 0.0171
hepatocyte CLint (in vitro [8]): 28 µL/min/1e6 cells
microsomal CLint (in vitro [9]; liver microsomes): 3 µL/min/mg

CCOC(=O)N1CCC(c2cc(=O)n(-c3ccccc3)[nH]2)CC1
pKa (physchem [1]): 6.8

O=C(O)c1coc2ccccc2c1=O
pKa (physchem [1]): 4

CC1=NN(C(=O)CCS)C(C(=O)O)S1 (centres undefined)
pKa (physchem [1]): 2.4

CCN(CC)CCN1C(=O)[C@@](O)(c2ccccc2Cl)c2c1cc(C(N)=O)cc2C(F)(F)F
hepatocyte CLint (in vitro [7]): 11.5 µL/min/1e6 cells
logD (physchem [2]; pH 7.4): 2.4
fraction unbound at 5 h (in vitro [5]): 0.289
fraction unbound at 5 h (in vitro [3]): 0.19
hepatocyte CLint (in vitro [8]): 56.2 µL/min/1e6 cells
fraction unbound at 5 h (in vitro [6]): 0.212
microsomal CLint (in vitro [9]; microsomes): 93.3 µL/min/mg

Cc1cn(Cc2ccccc2)c(=O)[nH]c1=O
logD (physchem [2]; pH 7.4): 1.19
pKa (physchem [1]): 9.4

Cc1n[nH]c(C)c1Cc1sc2c(c1C(=O)N1C[C@H](O)CO1)c(=O)n(C)c(=O)n2CC(C)C
logD (physchem [2]; pH 7.4, LogD7.4): 1.07
fraction unbound at 5 h (in vitro [5]; PPB): 0.489
fraction unbound at 5 h (in vitro [3]): 0.656
microsomal CLint (in vitro [9]; liver microsomes): 4 µL/min/mg
pKa (physchem [4]): 3.4
